Results taken from a melting point compilation (Tetko et al.; mined from patent text by program, amines drawn as free bases though some values may be those of a salt).

| Compound | melting point |
| --- | --- |
| COC(=O)c1cccc2[nH]ncc12 | 153 to 155 °C |
| Cn1ncc(Cl)c(N)c1=O | 106 to 107 °C |
| Cc1cc(C(=O)c2ccc(O)cc2)ccc1[N+](=O)[O-] | 146 to 148 °C |
| Cc1nnc(-c2ccc3occ(-c4cccc(CO)c4)c3c2)o1 | 115 to 116 °C |
| CCCn1c(=O)[nH]c(Cl)c(-c2ccccc2)c1=O | 230 to 231 °C |
| COc1ccccc1-c1cc2[nH]c3ccc(O)cc3c2c2c1C(=O)NC2=O | 216 °C |
| OCCc1noc(Cc2ccc(-c3ccccc3)cc2)n1 | 94 to 95 °C |
| CC(C(=O)O)c1ccc2c(c1)CC(C(C)C)C2 (stereo not given) | 90 to 91.5 °C |
| Nc1ccc(-c2cc(=O)cc(N3CCOCC3)o2)cc1 | 258 to 260 °C |
| CCCC(CCC)C(=O)c1ccc(O)c(C(=O)O)c1 | 118 °C |
| COC(=O)c1nc(-c2ccc(Cl)c(F)c2F)nc(N)c1/C=C/[Si](C)(C)C | 139 to 141 °C |
| CCC1OC(=O)N(CCc2ccc(NC(=O)c3cccs3)cc2)N=C1c1ccc(OC)c(OC)c1 (stereo not given) | 197 °C |
| O=C(CC(CC1CCCCC1)(C(=O)O)C(=O)O)c1ccco1 | 127 to 130 °C |
| CN(C)c1cccc(C(=O)NCCc2c3n(c4ccccc24)C(=O)CCC3)c1 | 136 °C |
| COc1cc(C2C3=C(COC3=O)Nc3ccc4cn[nH]c4c32)cc(OC)c1OC (stereo not given) | 278 to 279 °C |
| N#Cc1c(Cl)cccc1C(F)(F)F | 45 to 47 °C |
| C#Cc1cc2ncc(C#N)c(Nc3cc(OC)c(Cl)cc3Cl)c2s1 | 198 to 200 °C |
| CON=C(c1ccon1)c1ccccc1COc1cc(C)ccc1C | 104 to 108 °C |
| CC(=O)NC(C(=O)NCc1ccccc1)c1ncc[nH]1 (stereo not given) | 228 to 230 °C |
| N#Cc1ccc(-c2ccc(-c3nc(N)nc(N)n3)cc2)cc1 | > 260 °C |
| COc1cc(/C=C/C(=O)/C=C/C(=O)O)cc(OC)c1OC | 152 to 154 °C |
| O=C(O)CCc1ccc(C(=O)CN2CCN(c3ccncc3)CC2)cc1 | 245 to 247 °C |
| O=C1C=C(c2ccc(Cl)cc2)C(=O)O1 | 144 to 145 °C |
| COc1ccc(NC(=O)c2ccc(C(C)(C)CN)cc2)cc1 | 139 to 140 °C |
| CCC(=O)NC(=O)Nc1ccc(OC)c(OC)c1 | 193 to 197 °C |
| COC(C)=CC(=O)Nc1cccc(N)c1 | 132 °C |
| CC(O)CSc1cc(C(C)(C)C)c(O)c(C(C)(C)C)c1 (stereo not given) | 82 °C |

| Compound | melting point |
| --- | --- |
| CCOc1cnc2nc(SCc3ccccc3)nn2c1 | 139 to 140 °C |
| CC(C)(C)OC(=O)N[C@H]1CC[C@H](CN2CCN(c3cccc4c3CCC4)CC2)CC1 | 131 to 134 °C |
| O=C(c1ccc(F)cc1)C1CCN(CCN2C(=O)Nc3ccc(Cl)cc3C2c2ccccc2)CC1 (stereo not given) | 196 °C |
| Cc1nn(-c2ccccn2)c2nc3ccccc3c(N)c12 | 210 to 213 °C |
| CC(C)CCn1c(=O)c(=NNc2ccccc2)c(=O)n(-c2ccccc2F)c2ccccc21 | 104 to 105 °C |
| Cc1ccc(-c2[nH]nc(CO)c2-c2ccc(S(N)(=O)=O)cc2)cc1 | 130 °C |
| COc1cc2c(=O)c(C#N)c[nH]c2cc1[N+](=O)[O-] | 305 to 309 °C |
| CN=C(NC#N)N1CC1 | 130 to 132 °C |
| CCC(=O)NC1=NN(c2ccccc2)C(c2ccccc2)C1 (stereo not given) | 148 °C |
| CCc1nn(-c2ccc3cc(N=CN(C)C)c(=O)oc3c2)nc1C | 158 to 159 °C |
| N#CSc1ccc(F)c(C#N)c1 | 39 to 41 °C |
| C#CCCCCCCCCCCCCCCCCCCCC(=O)OC(C)(C)C | 44 to 45 °C |
| CCCNC(C)=NC(=Nc1ccccc1)N1CCOCC1 | 101 to 103 °C |
| CCOC(=O)Cc1ccc(OCc2ccc3c(c2)OCO3)cc1 | 49 to 52 °C |
| COC1(c2cccc(OCc3ccc(-n4cnc(C)c4)cc3)c2)CCOCC1 | 120 to 121 °C |
| CC(=O)C(=Cc1ccc(O)c(O)c1)C(C)=O | 134 to 137 °C |
| CON(C)S(=O)(=O)c1ccccc1S(N)(=O)=O | 136 to 140 °C |
| CC(C)(C)OC(=O)c1ccsc1NC(=O)Nc1ccc(Oc2ccccc2)cc1 | 203 to 205 °C |
| C[C@]1(COc2ccc3nc(N4CCN(Cc5ccc(OC(F)(F)F)cc5)CC4)sc3c2)Cn2cc([N+](=O)[O-])nc2O1 | 206 to 207 °C |
| CCOC(=O)Cc1ccc(-c2nc(COc3ccc(COc4nn(-c5ccccc5)cc4/C=C\c4csc(CC)n4)cc3OC)c(C)o2)cc1 | 136 to 137 °C |
| CCSCCCNc1c(S(=O)(=O)C(F)(F)F)c(C#N)nn1-c1c(Cl)cc(C(F)(F)F)cc1Cl | 80 °C |
| CC(C#N)(C(=O)NC1CCCCC1)c1ccccc1 (stereo not given) | 76 to 78 °C |
| O=S(=O)(NCCCN1c2ccccc2CCc2ccc(Cl)cc21)c1ccc(OC(F)(F)F)cc1 | 119 to 121 °C |
| Cc1cnc(-c2cc(C(F)(F)F)nn2C)nc1Oc1cc(C(F)(F)F)nn1C | 113 °C |
| COc1cc(Cl)c([N+](=O)[O-])cc1C(=O)O | 184 to 185 °C |
| COC(=O)c1cc(NC(=O)c2cc(NC(=O)c3cc(NC(=O)OC(C)(C)C)cn3C)cn2C)cn1C | 134 °C |
| O=S(=O)(On1nnc2ccc(Cl)cc21)c1ccccc1 | 110 °C |

| Compound | melting point |
| --- | --- |
| Oc1ccc2c(c1O)C(=Cc1ccnc3ccccc13)c1ccccc1-2 | 315 °C |
| CCOC(=O)CN(C(=O)C(F)(F)F)C(Sc1ccccc1)P(=O)(O)ONC(C)C (stereo not given) | 102 to 103 °C |
| CCCn1nc2c(N)nc3ccccc3c2c1CCCCS(=O)(=O)NC | 166 to 169 °C |
| CC(=CCO)CS(=O)(=O)c1ccccc1 | 55 to 56.5 °C |
| COC(=O)c1cc(CO)nn1-c1ncccc1Cl | 104 °C |
| COC(=O)c1ccc(-c2cc(=O)c3ccc(N)cc3o2)cc1 | > 260 °C |
| CCn1cc(C(=O)O)c(=O)c2cc(F)c(N3CCNC(c4ccn(S(=O)(=O)c5ccccc5)c4)C3)cc21 (stereo not given) | 120 °C |
| CCOC(=O)NCn1cccc1C(=O)c1ccc(Cl)cc1Cl | 79 to 80 °C |
| c1ccc(CC2CCN2C(c2ccccc2)c2ccccc2)cc1 (stereo not given) | 87.5 °C |
| Cc1ccc(O)c(C(=O)C2CC2)c1 | 66 to 68 °C |
| O=[N+]([O-])c1ccc(Sc2cc(Br)nc(Br)c2)cc1 | 166 to 168 °C |
| Cc1ccc(-c2cc(C(F)(F)F)nn2-c2ccc(S(N)(=O)=O)c(F)c2)cc1 | 126 to 128 °C |
| COc1cc(C=O)ccc1NC(=O)OCC1c2ccccc2-c2ccccc21 | 150 to 152 °C |
| O=C(O)CCCOc1cc(C(F)(F)F)cc(C(F)(F)F)c1 | 85 to 87 °C |
| CONc1nc(Nc2ccc(C#N)cc2)nc(Oc2c(C)cc(C#N)cc2C)c1Br | 185 to 186 °C |
| O=C(NC(=O)c1ccccc1Cl)Nc1cc(Cl)c2c(c1)C(F)(F)C(F)(F)S2 | 140 to 142 °C |
| Nc1cc(Cl)c([N+](=O)[O-])cc1CCO | 176 °C |
| CCCCn1c(=O)c2c(ncn2S(=O)(=O)c2ccc(N(OC(C)=O)C(C)=O)cc2)n(CCCC)c1=O | 155 to 157 °C |
| CC(C)(C)OC(=O)N1CCN2C(=O)OC(c3ccccc3)C2C1 (stereo not given) | 133 to 135 °C |
| Cc1c(-c2ccc(O)cc2)sc(C#N)c1-c1cccc(O)c1 | 220 to 222 °C |
| COc1cc(C(=O)O)ccc1Cc1c(Cl)n(C)c2ccc(CC(C)NC(=O)N(C)C)cc12 (stereo not given) | 171 to 173 °C |
| c1ccc(N2CCN(c3nc4c(c(NC5CCCCC5)n3)SCC4)CC2)cc1 | 174 to 175 °C |
| CCN(C=NS(=O)(=O)NC(=O)Nc1nc(OC)cc(OC)n1)CSC | 143 to 144 °C |
| CC1(C)Cc2cccc(C(=O)O)c2S1 | 179 to 182 °C |
| CC(C)n1nc(-c2c(OCc3ccccn3)nc(N)nc2-c2ccccc2)ccc1=O | 177 to 178 °C |
| Cc1c(-c2ccccc2F)[nH]c(NCc2ccccc2)c1C#N | 151 to 152 °C |
| Nc1ccc(OC(=O)C2CCCCC2)c(C(=O)O)c1 | 116 to 121 °C |

| Compound | melting point |
| --- | --- |
| CC(=NCc1ccc(Cl)cc1Cl)c1ccc(OCC(O)(Cn2cncn2)C(C)(C)C)cc1 (stereo not given) | 101 °C |
| COc1cccc(-c2cc3c(n2-c2ccc(O)c(C(=O)O)c2)CCCC3)c1 | 175 to 177 °C |
| O=C(O)c1cn2c3c(ccc([N+](=O)[O-])c3c1=O)C1CCCCC12 (stereo not given) | 251 to 253 °C |
| CO[C@@H]1C=C2C=C3C(=C(C)C(=O)N3C)C[C@]2(C)[C@@H](C)[C@H]1O | 165 to 170 °C |
| O=C(O)CCc1c(C=C2C(=O)Nc3ccc(Cl)cc32)[nH]c2c1CCCC2 | 370 to 384 °C |
| C=CCn1nc(-c2ccc(S(C)(=O)=O)cc2)c(-c2ccc(F)cc2)c1C(F)(F)F | 116 to 119 °C |
| Cc1c(-c2ccccc2)oc(=O)c(Sc2ccccc2)c1O | 166 to 167 °C |
| OCCNc1nc(Cl)nc2cccc(Br)c12 | 165 to 167 °C |
| COc1ccc2[nH]cc(C3=CCN(C)CC3)c2n1 | 203 °C |
| CN1N=C(c2ccccc2)CC1=O | 211 °C |
| CCOC(=O)C(C#N)=Cc1c(Cl)n(C)c2ccccc12 | 131 to 132 °C |
| O=c1[nH]c2ccc(CCBr)cc2o1 | 148 to 151 °C |
| Nc1ccc(C(=O)NCCNC(=O)c2ccc(N)cc2)cc1 | 294 to 295 °C |
| CCCCCCCSc1nn2c(=O)c(C)c(F)nc2s1 | 78 to 91 °C |
| O=c1c2[nH]cnc2n(CC2CC2)c(=O)n1CC1CC1 | 203 °C |
| CCOC(=O)c1cn(C(C)(C)C)c2nc(N3CC4CCC(C3)N4C(=O)C(F)(F)F)c(F)cc2c1=O | 205 °C |
| Cn1c(Oc2cccc(C(F)(F)F)c2)nc2c(-c3cccc(C(=O)NCCO)c3)cccc21 | 139 to 140 °C |
| C(=C(c1ccccc1)N(c1ccccc1)c1ccccc1)c1cccc2ccccc12 | 170 to 172 °C |
| COc1cccc2c1C(C)(C)C(=O)N2 | 143 to 144 °C |
| Cc1oc(-c2ccccc2)nc1COc1ccc(COc2nn(C)cc2CC(=O)O)cc1 | 133 to 134 °C |
| C#CC(OC(c1ccccc1)(c1ccccc1)c1ccccc1)C(C)(C)CCCC (stereo not given) | 75 to 77 °C |
| CS(=O)COC(=O)c1oc(-c2ccccc2)cc(=O)c1Br (stereo not given) | 159 °C |
| O=c1n(CCCCN2CCN(c3cccc(Cl)c3)CC2)nc2ccccn12 | 122 to 123 °C |
| Cc1ccc(S(=O)(=O)N2CCOC(C)(C)C2)cc1 | 95 to 97 °C |
